Converted amounts (≈) assume the structure as drawn. “And” between values parts separate entries of the source, which are not always exact repeats. Equal entries are not always repeated.
Tests used:
Trypanosoma brucei [1] = assay: DNDI: Inhibition of Human African Trypanosomiasis, Cross 22, in vitro; assay type: functional, organism-based
[2] = DNDI: Lipophilicity measured in Chromatographic hydrophobicity index (CHI) assay, pH 7.4; assay type: physicochemical; settings: buffer
Trypanosoma cruzi = assay: DNDI: Inhibition of Chagas Disease parasite Trypanosoma cruzi (Tulahuen LacZ, Clone C4), in vitro.; assay type: functional, organism-based
in vitro [3] = settings: human
Description: DNDI: in vitro intrinsic clearance in human liver microsomes at a concentration of 1uM

in vitro [4] = settings: human; remark: listed apart in the source
Description: DNDI: half life in human liver microsomes at a concentration of 1uM

[5] = DNDI: Solubility in phosphate buffered saline at pH7.4 measured by nephelometry at room temperature (NEPH-RT); assay type: physicochemical; settings: pH 7.4
[6] = DNDI: Cytotoxicity against L929 mouse fibroblasts, CYTO-SP, 24 hour; assay type: toxicity, cell-based; settings: mouse, L929 mouse fibroblasts
Trypanosoma brucei [7] = assay: DNDI: Mean survival time in days (MSD) of mice after intraperitoneal injection of Human African Trypanosomiasis (HAT), EATRO 110, in vivo at 20 mg/kg/day for 4 days.; assay type: functional, Mus musculus
Leishmania donovani = assay: DNDI: Inhibition of formation of Leishmania donovani (strain MHOM/ET/67/L82) axenic amastigotes, in vitro.; assay type: functional, organism-based
[8] = DNDI: Cytotoxicity against L929 mouse fibroblasts, 72 hour.; assay type: toxicity, cell-based; settings: mouse, L929 mouse fibroblasts
[9] = DNDI: Cytotoxicity against L-6 rat myoblasts from skeletal muscle cells; assay type: toxicity, cell-based, L6; settings: L-6 rat skeletal muscle myoblasts
[10] = system: Trypanosoma brucei rhodesiense; assay: DNDI: Inhibition of Human African Trypanosomiasis (HAT), STIB 900, in vitro; assay type: functional, organism-based
Plasmodium falciparum = assay: DNDI: Inhibition of the malaria parasite Plasmodium falciparum, in vitro; assay type: functional, organism-based; settings: K1
Trypanosoma brucei [11] = assay: DNDI: Inhibition of Human African Trypanosomiasis, SBRI 427, in vitro; assay type: functional, organism-based
[12] = mouse, microsomes, 1 µM
Description: DNDI: in vitro intrinsic clearance in mouse liver microsomes at a concentration of 1uM

in vitro [13] = settings: mouse
Description: DNDI: half life in mouse liver microsomes at a concentration of 1uM

[14] = DNDI: half life in mouse liver microsomes at a concentration of 10uM; assay type: ADME, Microsome
[15] = DNDI: in vitro intrinsic clearance in mouse liver microsomes at a concentration of 10uM; assay type: ADME, Microsome; settings: read-out: CLint in vitro
[16] = DNDI: in vitro intrinsic clearance in human liver microsomes at a concentration of 10uM; assay type: ADME, Microsome
[17] = DNDI: half life in human liver microsomes at a concentration of 10uM; assay type: ADME, Microsome
[18] = DNDI: Solubility in phosphate buffered saline at pH7.4 measured by optical density (turbidimetry) at room temperature (OD-RT); assay type: physicochemical; settings: pH 7.4
Trypanosoma brucei [19] = assay: DNDI: Inhibition of Human African Trypanosomiasis, EATRO 110, in vitro; assay type: functional, organism-based
[20] = liver microsomes, CLint in vitro
[21] = Trypanosoma brucei, SBRI 427, read-out: IC50

SMILES	chromatographic logD [2]	microsomal CLint at 1 µM (in vitro [3]; [20]) [µL/min/mg]	half-life at 1 µM (in vitro [4]; liver microsomes, t (1 / 2)) [h]	solubility kinetic [5] [µM]	IC50 (Trypanosoma brucei [11]; [21]) [µg/mL]	CLint in vitro [12] [µL/min/mg]	half-life at 1 µM (in vitro [13]; liver microsomes, t (1 / 2)) [h]	IC50 (Trypanosoma brucei [1]) [µg/mL]	IC50 at 24 h [6] [µg/mL]	IC50 at 72 h [8] [µg/mL]	further results
CCCCc1ccc(-c2nc(CNC[C@@H]3CC[C@H]4C[C@@H]3C4(C)C)co2)cc1	6.68	22	0.65	3 (≈ 1.1 µg/mL)	–	–	–	0.31 (≈ 0.846 µM)	> 50	> 10	IC50 (Trypanosoma cruzi): 2.61 µg/mL (≈ 7.12 µM); MSD (Trypanosoma brucei [7]): 3.5 days; IC50 (Leishmania donovani): 4.84 µg/mL (≈ 13.2 µM); IC50 [9]: 2.89 µg/mL (≈ 7.88 µM); IC50 [10]: 0.361 µg/mL (≈ 0.985 µM); IC50 (Plasmodium falciparum): 0.389 µg/mL (≈ 1.06 µM)
O/N=C(\NC1CCCCC1)c1cccnc1	2.82	–	–	> 200	> 5	12	–	–	50 (≈ 228 µM)	–	microsomal CLint at 1 µM (in vitro [3]; microsomes): 3 µL/min/mg; half-life at 1 µM (in vitro [13]; microsomes): 1.17 h; half-life at 1 µM (in vitro [4]; microsomes): 4.62 h
CCCCCC(C)NCc1coc(-c2cccc(OC)c2)n1 (stereo not given)	4.32	–	–	–	2.26 (≈ 7.47 µM)	–	–	–	18 (≈ 59.5 µM)	6.95 (≈ 23 µM)	half-life at 10 µM [14]: 0.9 h; microsomal CLint at 10 µM [15]: 53 µL/min/mg; CLint in vitro [16]: 23 µL/min/mg; half-life at 10 µM [17]: 2.12 h
CCCCc1ccc(-c2nc(CN[C@@H]3C[C@@H]4C[C@H]([C@H]3C)C4(C)C)co2)cc1	6.6	–	–	6 (≈ 2.2 µg/mL)	–	–	–	0.57 (≈ 1.56 µM)	> 50	0.79 (≈ 2.16 µM)	IC50 (Trypanosoma cruzi): 1.4 µg/mL (≈ 3.82 µM); microsomal CLint at 1 µM (in vitro [3]; microsomes, CLint in vitro): 10 µL/min/mg; half-life at 1 µM (in vitro [13]; microsomes, t (1 / 2)): 0.217 h; half-life at 1 µM (in vitro [4]; microsomes, t (1 / 2)): 1.35 h; MSD (Trypanosoma brucei [7]): 3.5 days; IC50 (Leishmania donovani): 4.61 µg/mL (≈ 12.6 µM); IC50 [9]: 3.21 µg/mL (≈ 8.76 µM); IC50 [10]: 0.357 µg/mL (≈ 0.974 µM); IC50 (Plasmodium falciparum): 0.497 µg/mL (≈ 1.36 µM)
COC/C(=N/O)c1ccc(OC)cc1	1.64	3	5.25	50 (≈ 9.76 µg/mL)	> 5	19	0.733	–	> 50	–	–
CCCCCC(C)NCc1coc(-c2ccc(-c3ccccc3)cc2)n1 (stereo not given)	4.94	–	–	–	0.24 (≈ 0.689 µM)	–	–	0.4 (≈ 1.15 µM)	> 50	1.83 (≈ 5.25 µM)	IC50 (Trypanosoma brucei [11]): 0.25 µg/mL and 0.42 µg/mL; half-life at 10 µM [14]: 9.55 h; IC50 (Trypanosoma cruzi): 6.4 µg/mL (≈ 18.4 µM); solubility kinetic [18]: < 1 µM; IC50 (Leishmania donovani): 5 µg/mL (≈ 14.3 µM); IC50 [9]: 6.78 µg/mL (≈ 19.5 µM); microsomal CLint at 10 µM [15]: 5 µL/min/mg; CLint in vitro [16]: 1 µL/min/mg; half-life at 10 µM [17]: 79.5 h; IC50 [10]: 0.321 µg/mL (≈ 0.921 µM); IC50 (Plasmodium falciparum): 1.68 µg/mL (≈ 4.82 µM)
CCOc1ccc(-c2nc(CNC3[C@H]4C[C@@H]5C[C@@H](C[C@H]3C5)C4)co2)cc1 (stereo not given in full)	–	–	–	–	1.21 (≈ 3.43 µM)	102	0.133	2.15 (≈ 6.1 µM)	43.2 (≈ 123 µM)	6.6 (≈ 18.7 µM)	IC50 (Trypanosoma brucei [11]): 1.46 µg/mL and 2 µg/mL; IC50 (Trypanosoma brucei [19]): 0.86 µg/mL (≈ 2.44 µM)

Further lines, with some results ahead:

chromatographic logD [2]	microsomal CLint at 1 µM (in vitro [3]; [20]) [µL/min/mg]	half-life at 1 µM (in vitro [4]; liver microsomes, t (1 / 2)) [h]	solubility kinetic [5] [µM]	IC50 (Trypanosoma brucei [11]; [21]) [µg/mL]	CLint in vitro [12] [µL/min/mg]	half-life at 1 µM (in vitro [13]; liver microsomes, t (1 / 2)) [h]	SMILES	IC50 (Trypanosoma brucei [1]) [µg/mL]	IC50 at 24 h [6] [µg/mL]	IC50 at 72 h [8] [µg/mL]	further results
4.26	14	1.02	> 200	> 5	35	0.417	O/N=C(\NC1CCCCC1)c1cc(F)cc(F)c1	–	> 50	–	–
4.67	13	1.12	50 (≈ 14.1 µg/mL)	2.02 (≈ 7.15 µM)	78	0.183	CC(C)(C)CN/C(=N\O)c1ccccc1-c1ccccc1	–	> 50	–	–
2.78	5	2.77	25 (≈ 5.81 µg/mL)	> 5	55	0.25	O/N=C(\CNC1CCCCC1)c1ccccc1	–	> 50	–	–
3.67	–	–	50 (≈ 12.7 µg/mL)	> 5	8	–	O/N=C(\NC1CCCCC1)c1c(F)cccc1F	–	> 50	–	microsomal CLint at 1 µM (in vitro [3]; microsomes, CLint in vitro): < 5 µL/min/mg; half-life at 1 µM (in vitro [13]; microsomes, t (1 / 2)): 1.73 h; half-life at 1 µM (in vitro [4]; microsomes, t (1 / 2)): > 5.83 h
4.02	12	1.2	> 200	4.92 (≈ 20.8 µM)	53	0.267	O/N=C(\NC1CCCCC1)c1ccc(F)cc1	–	> 50	–	–

— ChEMBL document CHEMBL1857833, “Screening and optimization of specific chemical series against human African Trypanosomiasis (HAT)”
